# Columns and labels:
# human TREK-2 = molecular target: T1, human TREK-2 (Homo sapiens, UniProt P57789); test: Macroscopic TREK-2 currents in giant excised patches from Xenopus oocytes; format: cell-based
# T1 construct: expressed in transfected cells; host or cells: Xenopus laevis oocytes injected with in vitro transcribed mRNA (pFAW vector)
# T1 sequence (P57789 1-543 isoform P57789-4): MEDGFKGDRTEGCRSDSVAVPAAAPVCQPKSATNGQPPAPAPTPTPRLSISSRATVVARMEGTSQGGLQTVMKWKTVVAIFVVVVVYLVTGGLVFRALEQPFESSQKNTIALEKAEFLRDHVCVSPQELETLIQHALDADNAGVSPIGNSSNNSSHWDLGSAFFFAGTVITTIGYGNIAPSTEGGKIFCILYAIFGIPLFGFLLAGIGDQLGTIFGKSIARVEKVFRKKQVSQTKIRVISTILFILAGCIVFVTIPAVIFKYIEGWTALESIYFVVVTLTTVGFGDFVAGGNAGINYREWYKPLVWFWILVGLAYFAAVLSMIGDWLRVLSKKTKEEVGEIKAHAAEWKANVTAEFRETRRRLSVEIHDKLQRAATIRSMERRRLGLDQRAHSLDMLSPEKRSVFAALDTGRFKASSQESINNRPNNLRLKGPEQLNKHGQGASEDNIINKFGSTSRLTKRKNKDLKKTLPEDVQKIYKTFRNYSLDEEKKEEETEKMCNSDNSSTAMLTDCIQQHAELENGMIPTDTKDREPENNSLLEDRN
# Protocol: (§1) Full-length human TREK-2 isoform 3 (NCBI accession no. NP_612191) was used throughout this study and was subcloned into the pFAW vector for expression in oocytes. The truncated construct used to generate protein (TREK-2ΔN/ΔC) is identical to that used previously to obtain crystal structures ([Dong et al., 2015]); it contains a deletion of 71 residues at the N terminus and 213 residues at the C terminus. […] Desamino chloro-fluoxetine (Toronto Research Chemicals) was dissolved in chloroform and diluted to working concentrations on the day of experimenting (maximum final concentration was 0.01%).
# Oocytes were prepared for injection of mRNA by collagenase digestion followed by manual defolliculation and stored in ND96 solution that contained (in mM) 96 NaCl, 2 KCl, 1.8 CaCl2, 1 MgCl2, and 10 HEPES (pH 7.4) and was supplemented with 2.5 mM sodium pyruvate 50 µg/ml gentamycin, 50 µg/ml tetracycline, 50 µg/ml ciprofloxacin, and 100 µg/ml amikacin. Cells were injected with 1–4 ng mRNA up to 4 d after isolation. In vitro transcription of mRNA was done using the Amplicap SP6 Kit (Cambio). Experiments were performed 12–24 h after injection at room temperature (22°C unless otherwise indicated). For measurement and comparison of basal whole-cell currents, oocytes were injected with 4 ng RNA and recorded exactly 24 h after injection.
# (§2) For currents recorded in Xenopus laevis oocytes, giant-patch electrodes were pulled from thick-walled borosilicate glass and polished to give pipette resistances of ∼0.3–0.5 MΩ when filled with patch solution. Pipette solution contained (in mM) 116 NMDG, 4 KCl, 1 MgCl2, 3.6 CaCl2, and 10 HEPES (pH 7.4), while the bath solution contained (in mM) 120 KCl, 1 NaCl, 2 EGTA, and 10 HEPES (pH 7.3). Patches were perfused via a gravity-flow perfusion system and a HEKA EPC 10 USB single computer–controlled amplifier was used and currents recorded using a Patchmaster v2 × 90.5 (HEKA Electronics), filtered at 1 kHz, and sampled at 10 kHz. For currents recorded in HEK293 cells, patch electrodes were pulled from thick-walled borosilicate glass and polished to give pipette resistances of ∼3–5 MΩ when filled with patch solution. The currents were recorded from excised patches with both intracellular and extracellular solution containing 200 mM KCl and 10 mM HEPES (pH 6.0 with KOH). Patches were perfused via a gravity-flow perfusion system. Data were acquired with pClamp and recorded using an Axopatch 200B (Molecular Devices), filtered at 5 kHz, and sampled at 200 kHz. Single-channel currents were analyzed in an identical manner to those obtained from bilayers (see above).
# The macroscopic concentration–inhibition relationships in Figs. 1 and 2 were fitted with a modified Hill equation:
# I/I0=a+1−a/1+([X]/IC50)^h, (1) where I and IO are the currents in the presence and absence of inhibitor, respectively, [X] is the concentration of inhibitor, IC50 is the inhibitor concentration at which the inhibition is half maximal, h is the Hill coefficient, and a is the fraction of unblockable current; a = 0, except where indicated in the legend to Fig. 1.
# The macroscopic concentration–activation relationships in Fig. 1 E were fitted with a modified Hill equation: I/I0=a+(1−a)([X]/IC50)^h/1+([X]/IC50)^h, (2) where I and IO are the currents in the presence and absence of agonist, respectively, [X] is the concentration of agonist, IC50 is the agonist concentration at which the activation is half maximal, h is the Hill coefficient, and a is the fraction of initial current.
# WT TREK-2 = molecular target: T2, WT TREK-2 (Homo sapiens, UniProt P57789); test: Single-channel recordings of WT TREK-2 in excised patches from HEK293 cells; format: cell-based
# T2 construct: full-length WT TREK-2 channels, we examined its effects on the mean open time of TREK-2 channels expressed in HEK293 cells; expressed in transfected cells; host or cells: HEK293 cells, transient transfection with pcDNA3
# T2 sequence (P57789 1-543 isoform P57789-4): T1 sequence (P57789 1-543 isoform P57789-4)
# Protocol: as §1
# HEK293 cells were cultured in DMEM (Sigma) containing 10% FBS (Life Technologies), 3 mM glucose, and 2 mM glutamine at 37°C in a humidified atmosphere of 5% CO2/[…] at 37°C. Cells were transiently transfected with 0.2 µg channel pcDNA3 per dish using FuGENE 6 according to the manufacturer’s instructions. Cells were used 1–2 d after transfection.
# as §2
structure (smiles),measurement,setting,value
c1ccc(-c2nn[nH]n2)c(Nc2cccc3c2CCCC3)c1 [BL1249],"h (Hill coefficient), BL1249 activation",human TREK-2; BL1249 on its own,1.9
same,"h (Hill coefficient), BL1249 activation",human TREK-2; in the presence of NFx,1.4
CS(=O)(=O)Nc1ccc(C(=O)NCc2ccc(Cl)cc2Cl)cc1 [ML335],mean Po,"WT TREK-2; 100 µM ML335, absence of NFx, −40 mV",0.69 ± 0.2
"FC(F)(F)c1ccc(O[C@@H](CCCl)c2ccccc2)cc1 [desamino chloro-fluoxetine, Desamino chloro-fluoxetine]",PO (single-channel open probability),"WT TREK-2; 10 µM, −40 mV",0.04
same,reduction in γ (single-channel current amplitude),"WT TREK-2; 10 µM, −40 mV (Fig. 6B)",15 ± 5%
same,reduction of channel Po,"WT TREK-2; 10 µM, −40 mV (Fig. 6B)",75 ± 0.05%

# Source: PMC8155809 (The Journal of General Physiology, 2021)
